Measurements taken from patent US7326733B2, “Methods for increasing bone density” (The Forsyth Institute, priority 2003, dated 2008).
“Also recorded” adds a separate entry of the source.

Legend:
[1] = system: cathepsin K, MMP-9, TRAP expression; experiment: Northern blot analysis of osteoclast markers in RANKL-stimulated RAW 264.7 cells; type: cell-based, mouse; design: reduction in the expression of cathepsin K / reduction in the expression of MMP-9 / reduction in the expression of TRAP: dose or concentration left out as unconfirmed
Procedure: Total RNA was extracted from cells using the TRIAZOL reagent (Invitrogen Corporation, Carlsbad, Calif.), according to the manufacturer's instructions. For RT-PCR, […] of RNA were reversed-transcribed to cDNA using SuperScript II (Invitrogen Corporation, Carlsbad, Calif.) following the manufacturer's instructions. One-tenth of the cDNA was used as a template for the polymerase chain reaction (PCR) […] (35 cycles at 94° C. for 1 minute, 58° C. for 1 minute and 72° C. for 1 minute). For Northern blot analysis, […] of RNA were size fractionated on a 1.2% agarose denaturing gel and transferred onto nylon membranes. The membranes were hybridized to ^32P radiolabeled probes overnight at 42° C. in hybridization solution (50% formamide, 5× SSC, 5× Denhardt's solution, 0.5% SDS and […] salmon sperm DNA), washed twice to remove unbound probe in 1× SSC, 0.2% SDS at 50° C. for 20 minutes, and exposed to X-ray film. The DNA probes were generated by reverse transcriptase polymerase chain reaction (RT-PCR) from OCL RNA, using the following primer-pairs: […]

RAW 264.7 cells = experiment: RANKL-induced osteoclast formation by RAW 264.7 cells, TRAP staining; type: cell-based, mouse; settings: for osteoclast differentiation (TRAP+ multinucleated osteoclasts): exposure 4 days
Procedure: RAW 264.7 mouse macrophage/monocytes (TIB-71) were purchased from ATCC (Manassas, Va.). Cells were cultured in DMEM/1.5 g/l sodium bicarbonate (JRH Biosciences, Lenexa, Kans.) plus 10% non-heat-inactivated FBS (Invitrogen Corporation Carlsbad, Calif.). When needed, 5-HT was stripped from the FBS by incubating it twice in 0.25% Dextran-coated charcoal (Sigma-Aldrich, St. Louis, Mo.) for 30 minutes at 45° C. Recombinant mouse soluble RANKL (Immunex Corp., Seattle, Wash.) was added at a concentration of 10 ng/ml. Recombinant murine RANKL is an NH2-terminal fusion of a leucine zipper trimerization domain (Fanslow et al., 1994, Semin. Immunol. 6(5):267-278) with residues 134-316 of murine RANKL. […] Cultures were also exposed to the VMAT inhibitor reserpine and the MAO-B inhibitor pargylline (Sigma-Aldrich, St. Louis, Mo.), at the indicated concentrations for 4 days. Mouse bone marrow cells were obtained from long bones of 2-week old C57B1 mice and cultured for 7 days in αMEM/FBS supplemented with 50 ng/ml RANKL and 50 ng/ml human M-CSF (PeproTech Inc., Rocky Hill, N.J.).
(§1) Cells were stained for tartrate-resistant acid phosphatase (TRAP) using a commercially available kit (#387-A, Sigma-Aldrich, St. Louis, Mo.), according to the manufacturer's directions.

[2] = cited from earlier work
[3] = system: normal mouse bone marrow cells (BMC); experiment: Osteoclast formation from normal mouse bone marrow cells with M-CSF and RANKL; type: cell-based; settings: TRAP staining
Procedure: Mouse bone marrow cells were obtained from long bones of 2-week old C57B1 mice and cultured for 7 days in αMEM/FBS supplemented with 50 ng/ml RANKL and 50 ng/ml human M-CSF (PeproTech Inc., Rocky Hill, N.J.).
as §1

Swiss Webster mice [4] = experiment: Systemic fluoxetine, trabecular parameters in mice (Example 2); type: in vivo; settings: fluoxetine 10 mg/kg i.p. once a day for 6 weeks, vs non-treated mice
From the text: After 6 weeks the animals were sacrificed and trabecular bones were examined.
The increased number, increased connectivity, and decreased space between the transversal structures (i.e. trabeculae) of “spongelike bone” is indicative of increased density and strength of trabecular bone.

Swiss Webster mice [5] = experiment: Femur bone mass by microcomputer tomography after fluoxetine (Example 6); type: in vivo; design: Trabecular thickness: unit not given here; settings: for Trabecular number / Trabecular spacing / Trabecular thickness / connectedness of trabeculae: hydrochloride
mice = experiment: New bone formation in calvarium after LPS or PTH plus fluoxetine, Van Giesson stain (Example 3); type: in vivo
Procedure: LPS (50 μl at 5 μg/μl) or PTH was injected subcutaneously above the calvarial bone once on day one to stimulate the osteoclasts.
After five days, the mice were sacrificed. The calvarium was fixed, decalcified, and analyzed histologically for new bone formation. Van Giesson stain was used to distinguish old bone from new bone (new bone stains blue). […] The x-axis represents arbitrary units of new bone formation, where 0 represents no new bone and 3 represents high amount of new bone.

[6] = system: Primary osteoblasts obtained from mouse calvaria; experiment: Bone nodule formation in vitro, Von Kossa stain (Example 5); type: cell-based; settings: two weeks in presence of Vitamin D, presence vs absence of fluoxetine
Procedure: Primary osteoblasts obtained from mouse calvaria were cultured in vitro for two weeks. […] The cells were then fixed and stained with Von Kossa stain, which stains for calcium phosphate present in bone nodules. Bone nodules formed by osteoblasts in vitro have the same cellular and biochemical composition found in bone. The number of bone nodules were counted.

[7] = added serotonin in 5-HT-depleted FBS, Days 3 and 4 after RANKL induction
[8] = RANKL-stimulated RAW 264.7 cells
[9] = femur, fluoxetine 10 mg/kg i.p. daily for six weeks, n = 6
[10] = femur, fluoxetine 10 mg/kg i.p. daily for six weeks, n = 6, listed as Fluoxetine
[11] = fluoxetine-treated vs untreated mice

For `NCCc1c[nH]c2ccc(O)cc12` [serotonin, 5-hydroxytryptamine], the MMP-9 expression [1, 7] was “up-regulated”, the “cathepsin K expression” value [1, 7] was “up-regulated” and the number of osteoclasts (RAW 264.7 cells; added serotonin at 30 or 300 ng/ml, 5-HT depleted FBS, RANKL-stimulated) was “significantly increased”. For the same molecule, the osteoclast formation (RAW 264.7 cells; addition of serotonin 3-300 ng/ml, cultures containing FBS (5-HT replete)) was “had no effect”.

For `CNCCC(Oc1ccc(C(F)(F)F)cc1)c1ccccc1.Cl` (racemic) [fluoxetine, (+/−)—N-methyl-3-phenyl-3-[(α,α,α-trifluoro-p-tolyl)oxy]propylamine hydrochloride], the “reduction in the expression of MMP-9” value [1, 8] was 80%, the “reduction in the expression of TRAP” value [1, 8] was roughly 20% and the “reduction in the expression of cathepsin K” value [1, 8] was roughly 70%. The half-life ([2]; stated with the dosage range for treating depression) was 170 to 220 h, the ½ life ([2]; stated with the mouse i.p. regimen of Example 2) was 1 to 2 days and the BMC-derived osteoclast formation [3] was “significantly inhibited”. For the same molecule, the Trabecular spacing (Swiss Webster mice [4]) was “decreased”, the “number of trabeculae per unit length of bone” value (Swiss Webster mice [4]) was “increased” and the thickness of trabeculae (Swiss Webster mice [4]) was “no significant difference”. For the same molecule, the “bone mineral content (BMC)” value (Swiss Webster mice [4]; hydrochloride) was “increase”, the connectedness of trabeculae (Swiss Webster mice [4]; hydrochloride) was “more connected; also recorded: increase” and the “formation of TRAP positive cells” value (RAW 264.7 cells; RANKL-induced RAW 264.7 cells, fluoxetine concentration series) was “inhibited the formation of TRAP positive cells in a dose-dependent manner”. The “osteoclast differentiation (TRAP positive multinucleated cells)” value (RAW 264.7 cells; RANKL-induced, 5-HT replete (FBS) and depleted (FBS−) serum) was “suppressed osteoclast differentiation”, the Bone surface (Swiss Webster mice [5]; [9]) was 16.9 ± 7.3 mm^2 and the Trabecular number (Swiss Webster mice [5]; [9]) was “significant increases”. The Trabecular spacing (Swiss Webster mice [5]; [9]) was “reduction”, the Trabecular thickness (Swiss Webster mice [5]; [9]) was “stable” and the connectedness of trabeculae (Swiss Webster mice [5]; [9]) was “better connected”. For the same molecule, the Bone volume/total volume (Swiss Webster mice [5]; femur, fluoxetine 10 mg/kg i.p. daily for six weeks, n = 6, in % (unit assumed)) was 16.7 ± 7.3, the Trabecular number (Swiss Webster mice [5]; [10]) was 3.26 ± 0.53 and the Trabecular spacing (Swiss Webster mice [5]; [10]) was 0.32 ± 0.05. For the same molecule, the Trabecular thickness (Swiss Webster mice [5]; [10]) was 0.09 ± 0.01, the connectedness of trabeculae (Swiss Webster mice [5]; [10]) was 114.2 ± 53.0 and the “increase in bone mineral content” value (Swiss Webster mice [5]; [11]) was 50%. For the same molecule, the “increase in bone surface” value (Swiss Webster mice [5]; [11]) was 50%, the “increase in bone volume/total volume” value (Swiss Webster mice [5]; [11]) was 50% and the new bone formation (mice; LPS injected above calvarial bone on day one, fluoxetine 10 mg/kg i.p. once a day for five days, vs LPS alone, hydrochloride) was “increased new bone formation; also recorded: greater increase in new bone”. For the same molecule, the new bone formation (mice; co-administration of fluoxetine and PTH, vs PTH alone) was “greater increase in new bone” and the “number of bone nodules” value [6] was “increased”.

For `C#CCN(C)Cc1ccccc1` [pargylline], the “osteoclast differentiation (TRAP+ multinucleated osteoclasts)” value (RAW 264.7 cells; presence of RANKL) was “had no effect”.

For `COC(=O)[C@H]1[C@H]2C[C@@H]3c4[nH]c5cc(OC)ccc5c4CCN3C[C@H]2C[C@@H](OC(=O)c2cc(OC)c(OC)c(OC)c2)[C@@H]1OC` [reserpine], the “TRAP expression by mono- and bi-nucleated cells” value (RAW 264.7 cells; absence of RANKL) was “induced TRAP expression”, the “formation of large multinucleated osteoclasts” value (RAW 264.7 cells; absence of RANKL) was “not formed” and the “osteoclast differentiation (TRAP+ multinucleated osteoclasts)” value (RAW 264.7 cells; presence of RANKL) was “promoted osteoclast differentiation”. The “cell size and multinucleation” value (RAW 264.7 cells; presence of RANKL, reserpine treatment) was “stimulated the formation of much larger cells with greater multinucleation”.
